Laboratory results reported in ChEMBL document CHEMBL1139605, “Novel ketal ligands for the glucocorticoid receptor: in vitro and in vivo activity” (Bioorg Med Chem Lett, 2005).
Blank lines part the entries; values can stand above or below the compound they belong to.

How the values were obtained:
[1] = Effective concentration required for induction of glutamine synthetase in human skeletal muscle cells using 0% radiolabeled Dexamethasone; assay type: functional
A549 [2] = assay: Effective concentration for inhibition of interleukin-6 in human A549 lung carcinoma cell line using 67% radiolabeled Dexamethasone; assay type: functional, cell-based
Mus musculus [3] = species on record: Mus musculus; assay: Effective concentration required for inhibition of interleukin-6 in mouse thioglycolate-elicited peritoneal exudate cell line using 85% radiolabeled Dexamethasone; assay type: functional
Glucocorticoid receptor [4] = target: T1, Glucocorticoid receptor (Homo sapiens, UniProt P04150); assay: Inhibition of human glucocorticoid receptor alpha isoform
T1 sequence (P04150 whole entry): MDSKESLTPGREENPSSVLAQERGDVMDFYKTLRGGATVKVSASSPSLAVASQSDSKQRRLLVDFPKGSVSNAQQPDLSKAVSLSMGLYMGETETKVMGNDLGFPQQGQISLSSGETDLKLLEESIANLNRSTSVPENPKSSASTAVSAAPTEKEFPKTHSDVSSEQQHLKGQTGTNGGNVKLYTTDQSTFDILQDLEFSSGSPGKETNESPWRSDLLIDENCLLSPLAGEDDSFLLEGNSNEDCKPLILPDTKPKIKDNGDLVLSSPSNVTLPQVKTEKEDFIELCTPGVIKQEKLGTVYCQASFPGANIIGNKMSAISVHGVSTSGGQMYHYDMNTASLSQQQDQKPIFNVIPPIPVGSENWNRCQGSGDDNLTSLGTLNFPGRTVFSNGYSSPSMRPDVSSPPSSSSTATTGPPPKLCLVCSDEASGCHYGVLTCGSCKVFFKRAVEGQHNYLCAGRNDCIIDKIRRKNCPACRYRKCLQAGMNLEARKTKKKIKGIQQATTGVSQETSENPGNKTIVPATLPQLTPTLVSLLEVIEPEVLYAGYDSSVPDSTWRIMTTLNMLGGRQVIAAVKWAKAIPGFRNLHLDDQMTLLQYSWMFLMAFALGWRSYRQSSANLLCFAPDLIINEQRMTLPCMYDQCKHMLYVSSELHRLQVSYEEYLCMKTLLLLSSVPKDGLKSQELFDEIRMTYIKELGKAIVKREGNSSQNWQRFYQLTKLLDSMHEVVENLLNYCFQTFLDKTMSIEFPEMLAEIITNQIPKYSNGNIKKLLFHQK

Mus musculus [5] = species on record: Mus musculus; assay: Effective concentration required for inhibition of interleukin-6 in mouse thioglycolate-elicited peritoneal exudate cell line using 70% radiolabeled Dexamethasone; assay type: functional
A549 [6] = assay: Effective concentration for inhibition of interleukin-6 in human A549 lung carcinoma cell line using 64% radiolabeled Dexamethasone; assay type: functional, cell-based
Mus musculus [7] = species on record: Mus musculus; assay: Effective concentration required for inhibition of interleukin-6 in mouse thioglycolate-elicited peritoneal exudate cell line using 64% radiolabeled Dexamethasone; assay type: functional
A549 [8] = assay: Effective concentration for inhibition of interleukin-6 in human A549 lung carcinoma cell line using 46% radiolabeled Dexamethasone; assay type: functional, cell-based
[9] = Volume of distribution in mouse at 2 mg/kg IV administration; assay type: ADME, organism-based; set-up: dose 2 mg/kg, route intravenous; conditions: in vivo, read-out: Volume of distribution
Estrogen receptor beta = Estrogen receptor beta (Homo sapiens, UniProt Q92731); assay: Binding affinity for human estrogen receptor beta
Mus musculus [10] = assay: Inhibition of LPS induced TNF-alpha secretion in mouse at an oral dose of 30 mg/kg relative to that produced by Dexamethasone at a dose of 0.3 mg/kg; assay type: functional
[11] = Half life time in mouse at 2 mg/kg IV administration; assay type: ADME, organism-based; set-up: dose 2 mg/kg, route intravenous; conditions: in vivo
[12] = Clearance data in mouse at 2 mg/kg IV administration; assay type: ADME, organism-based; set-up: dose 2 mg/kg, route intravenous; conditions: in vivo
Glucocorticoid receptor [13] = target: T1, Glucocorticoid receptor; assay: Binding affinity for human glucocorticoid receptor
Mus musculus [14] = species on record: Mus musculus; assay: Effective concentration required for interleukin-6 transrepression in peritoneal exudate cells of C57B1/6 mouse using 69% Dexamethasone; assay type: functional, cell-based
[15] = target: T2, Mineralocorticoid receptor (Rattus norvegicus, UniProt P22199); assay: Binding affinity for rat mineralocorticoid receptor
T2 sequence (P22199 whole entry): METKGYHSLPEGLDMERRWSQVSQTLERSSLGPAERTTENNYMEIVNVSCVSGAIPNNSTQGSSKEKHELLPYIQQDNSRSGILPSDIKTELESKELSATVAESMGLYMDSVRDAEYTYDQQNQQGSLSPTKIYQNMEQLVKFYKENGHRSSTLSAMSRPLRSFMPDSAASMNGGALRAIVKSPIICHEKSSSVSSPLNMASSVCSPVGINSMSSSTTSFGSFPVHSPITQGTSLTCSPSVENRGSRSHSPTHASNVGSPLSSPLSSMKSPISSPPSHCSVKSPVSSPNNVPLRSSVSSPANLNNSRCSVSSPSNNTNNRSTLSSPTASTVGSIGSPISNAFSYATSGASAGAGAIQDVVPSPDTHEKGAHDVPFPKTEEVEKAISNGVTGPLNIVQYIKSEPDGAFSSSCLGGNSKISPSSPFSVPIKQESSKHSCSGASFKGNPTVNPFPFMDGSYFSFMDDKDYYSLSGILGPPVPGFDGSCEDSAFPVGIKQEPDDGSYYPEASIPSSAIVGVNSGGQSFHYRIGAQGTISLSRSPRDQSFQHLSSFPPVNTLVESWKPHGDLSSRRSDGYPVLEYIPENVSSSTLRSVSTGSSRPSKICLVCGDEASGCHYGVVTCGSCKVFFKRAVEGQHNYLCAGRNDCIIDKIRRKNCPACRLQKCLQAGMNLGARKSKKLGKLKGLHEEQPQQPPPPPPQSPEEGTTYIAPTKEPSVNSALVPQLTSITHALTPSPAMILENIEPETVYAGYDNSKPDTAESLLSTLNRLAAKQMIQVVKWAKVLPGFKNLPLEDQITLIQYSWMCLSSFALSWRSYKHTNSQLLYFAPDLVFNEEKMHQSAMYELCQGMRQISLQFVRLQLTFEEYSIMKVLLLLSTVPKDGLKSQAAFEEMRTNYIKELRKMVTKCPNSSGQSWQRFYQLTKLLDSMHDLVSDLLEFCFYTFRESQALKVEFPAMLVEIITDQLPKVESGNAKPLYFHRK

A549 [16] = assay: Effective concentration for inhibition of interleukin-6 in human A549 lung carcinoma cell line using 60% radiolabeled Dexamethasone; assay type: functional, cell-based
Mus musculus [17] = species on record: Mus musculus; assay: Effective concentration required for inhibition of interleukin-6 in mouse thioglycolate-elicited peritoneal exudate cell line using 69% radiolabeled Dexamethasone; assay type: functional
Estrogen receptor = target: T3, Estrogen receptor (Homo sapiens, UniProt P03372); assay: Binding affinity for human estrogen receptor alpha
T3 sequence (P03372 whole entry): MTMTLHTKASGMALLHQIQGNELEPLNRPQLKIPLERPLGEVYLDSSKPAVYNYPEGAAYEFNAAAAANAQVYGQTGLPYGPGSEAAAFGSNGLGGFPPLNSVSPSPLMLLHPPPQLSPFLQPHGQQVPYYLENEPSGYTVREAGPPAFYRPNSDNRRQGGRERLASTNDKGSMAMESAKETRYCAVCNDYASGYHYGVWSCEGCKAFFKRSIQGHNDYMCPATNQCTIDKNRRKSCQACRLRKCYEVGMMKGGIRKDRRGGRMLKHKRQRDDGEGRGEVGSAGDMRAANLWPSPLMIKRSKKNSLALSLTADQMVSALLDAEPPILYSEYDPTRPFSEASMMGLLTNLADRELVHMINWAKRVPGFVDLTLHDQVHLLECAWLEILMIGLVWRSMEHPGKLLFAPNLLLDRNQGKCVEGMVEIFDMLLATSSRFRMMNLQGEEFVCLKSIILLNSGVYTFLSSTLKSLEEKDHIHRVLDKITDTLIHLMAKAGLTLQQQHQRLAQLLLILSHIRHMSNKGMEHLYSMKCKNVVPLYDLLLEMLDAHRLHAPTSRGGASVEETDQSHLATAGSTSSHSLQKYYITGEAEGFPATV

[18] = Bioavailability in mouse (dose 10 mg/kg p.o.); assay type: ADME, organism-based; conditions: in vivo, po
Mus musculus [19] = species on record: Mus musculus; assay: Effective concentration required for inhibition of interleukin-6 in mouse thioglycolate-elicited peritoneal exudate cell line using 111% radiolabeled Dexamethasone; assay type: functional
A549 [20] = assay: Effective concentration required for inhibition of interleukin-6 in human A549 lung carcinoma cell line using 93% radiolabeled Dexamethasone; assay type: functional, cell-based
HepG2 = assay: Effective concentration required for induction of tyrosine aminotransferase in human HepG2 cells using 74% radiolabeled Dexamethasone; assay type: functional, cell-based
[21] = Effective concentration required for induction of glutamine synthetase in human skeletal muscle cells using 45% radiolabeled Dexamethasone; assay type: functional
Mus musculus [22] = species on record: Mus musculus; assay: Effective concentration required for inhibition of interleukin-6 in mouse thioglycolate-elicited peritoneal exudate cell line using 72% radiolabeled Dexamethasone; assay type: functional
A549 [23] = assay: Effective concentration for inhibition of interleukin-6 in human A549 lung carcinoma cell line using 58% radiolabeled Dexamethasone; assay type: functional, cell-based

Sequence of Estrogen receptor beta (Q92731 whole entry): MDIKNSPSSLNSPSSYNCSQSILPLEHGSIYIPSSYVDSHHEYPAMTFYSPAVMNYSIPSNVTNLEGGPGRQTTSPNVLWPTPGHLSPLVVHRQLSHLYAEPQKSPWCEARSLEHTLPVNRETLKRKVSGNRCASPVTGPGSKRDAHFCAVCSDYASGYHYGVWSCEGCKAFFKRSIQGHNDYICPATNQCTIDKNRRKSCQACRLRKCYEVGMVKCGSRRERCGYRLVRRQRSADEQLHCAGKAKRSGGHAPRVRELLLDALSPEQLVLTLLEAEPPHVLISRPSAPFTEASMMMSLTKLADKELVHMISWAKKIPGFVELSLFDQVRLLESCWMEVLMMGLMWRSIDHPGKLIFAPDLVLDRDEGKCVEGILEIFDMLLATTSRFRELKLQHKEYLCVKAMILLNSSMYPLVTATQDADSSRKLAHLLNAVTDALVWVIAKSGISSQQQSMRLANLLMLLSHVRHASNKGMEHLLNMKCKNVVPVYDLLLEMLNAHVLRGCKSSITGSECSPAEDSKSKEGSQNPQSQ

SMILES: C[C@]12Cc3cnn(-c4ccc(F)cc4)c3C=C1CCC21O[C@H](c2ccccc2)[C@@H](c2ccccc2)O1
EC50 [1]: 0.01 µM
EC50 (A549 [2]): 0.01 µM
EC50 (Mus musculus [3]): 0.06 µM
IC50 (Glucocorticoid receptor [4]): 0.01 µM

EC50 (Mus musculus [5]): 0.091 µM
IC50 (Glucocorticoid receptor [4]): 0.0085 µM
SMILES: C[C@]12Cc3cnn(-c4ccc(F)cc4)c3C=C1CC[C@]21OC[C@@H](c2ccccc2)O1

EC50 (A549 [6]): 0.026 µM
EC50 (Mus musculus [7]): 0.019 µM
IC50 (Glucocorticoid receptor [4]): 0.0031 µM
SMILES: C[C@@H]1C[C@H](C)O[C@@]2(CCC3=Cc4c(cnn4-c4ccc(F)cc4)C[C@@]32C)O1

EC50 (A549 [8]): 0.00048 µM
IC50 (Glucocorticoid receptor [4]): 0.018 µM
SMILES: C[C@@H]1CCO[C@@]2(CCC3=Cc4c(cnn4-c4ccc(F)cc4)C[C@@]32C)O1

Vd [9]: 27.2 L/kg
IC50 (Estrogen receptor beta): > 10 µM
half-life [11]: 3 h
clearance [12]: 118 mL/min/kg
IC50 (Glucocorticoid receptor [13]): 0.0071 µM
EC50 (Mus musculus [14]): 0.054 µM
IC50 [15]: > 10 µM
EC50 (A549 [16]): 0.013 µM
EC50 (Mus musculus [17]): 0.054 µM
IC50 (Estrogen receptor): > 10 µM
IC50 (Glucocorticoid receptor [4]): 0.0071 µM
bioavailability [18]: 23%
SMILES: C[C@H]1C[C@H](C)OC2(CCC3=Cc4c(cnn4-c4ccc(F)cc4)C[C@@]32C)O1 (some centres not stated)
Inhibition (Mus musculus [10]): 80.8%

EC50 (Mus musculus [19]): 0.0076 µM
EC50 (A549 [20]): 0.0065 µM
EC50 (HepG2): 0.164 µM
IC50 (Glucocorticoid receptor [4]): 0.0027 µM
EC50 [21]: 0.017 µM
SMILES: C/C=C/[C@H]1OC2(CCC3=Cc4c(cnn4-c4ccc(F)cc4)C[C@@]32C)O[C@@H]1/C=C/C

EC50 (Mus musculus [22]): 0.045 µM
EC50 (A549 [23]): 0.0075 µM
IC50 (Glucocorticoid receptor [4]): 0.0084 µM
SMILES: C[C@@H]1C[C@@H](C)OC2(CCC3=Cc4c(cnn4-c4ccc(F)cc4)C[C@@]32C)O1 (stereo in doubt; form 1)
